Entries after “also recorded” stand apart in the source; their conditions may differ.
Assays:
[1] = system: EEV; type: cell-based, Vaccinia virus strain WR
[2] = Tolerability of polyanions administered to mice; conditions: for adverse effects after intraperitoneal injection: unpublished data; for weight loss or illness after intranasal administration: up to 2 mg/mouse intranasally
[3] = system: VACV harvested from supernatant of infected cells (predominantly EEV); type: cell-based, Vaccinia virus strain WR
[4] = system: VACV strain WR-induced actin tails; type: cell-based, Vaccinia virus strain WR
[5] = system: VACV strain WR; type: in vivo, mice; conditions: 2 mg polyanion intranasally 2 days post-infection; for benefit with polyanion in mice that received human IgG: Hu anti-VV Ab 500 μg; for weight loss after infection, polyanion alone: non-immune IgG, 1×10^4 pfu
[6] = system: VACV strain WR; type: in vivo, mice; conditions: 3×10^3 pfu, polyanion intranasally on one and three days post-infection
[7] = system: VACV (most likely IMV form); conditions: DS per se at 80 μg/ml; cited from earlier work
[8] = system: EEV; type: cell-based, Vaccinia virus
[9] = system: VACV strain WR; type: cell-based, Vaccinia virus strain WR
[10] = system: EEV membrane; design: species or system Vaccinia virus strain WR
[11] = system: CEV outer membrane; type: cell-based, Vaccinia virus strain WR
[12] = system: VACV strain WR; design: species or system mice; conditions: mouse, in vivo

Substance	relative effectiveness at rendering EEV sensitive to anti-IMV antibody [1]	adverse effects after intraperitoneal injection [2]	infectivity of virus in the supernatant of VACV-infected cells [3]	neutralizing activity of both antisera [3]	virus infectivity in the supernatant [1]	actin tails formed in cells that made actin tails [4]	cells found to make actin tails [4] [%]	protection with polyanion in mice passively immunised with rabbit anti-IMV IgG [5]	benefit with polyanion in mice that received human IgG [5]	weight loss after infection, polyanion alone [5]	benefit in vivo at lower virus challenge [6]	weight loss or illness after intranasal administration [2]	further results
dextran sulphate [DS-HMW]	more potent than HP and DS; also recorded: more effective than DS with lower molecular weight	did not affect the mice adversely											body weight reduction ([2]; 2 mg/mouse intranasally, after 2 days): 15%; weight loss or illness after intranasal administration ([2]; listed as high MW DS): increased respiratory effort, followed by breathing difficulty
dextran sulphate [DS]			did not reduce the infectivity	56-63%	abolished virus infectivity	significantly fewer actin tails were formed	15	potentiated the therapeutic effect of this Ab	less effective	slightly less weight loss	confirmed	did not cause weight loss or illness	inhibition of VACV [7]: only partially inhibit VACV
heparin [HP-HWM]	more potent than HP and DS; also recorded: more effective than heparin with lower molecular weight												
heparin [HP]	more effective at the dose tested than desulphated HP	did not affect the mice adversely	did not reduce the infectivity	55-61%	abolished virus infectivity	significantly fewer actin tails were formed	15	provided protection to a level equivalent to rabbit IgG generated against live infection	provided similar benefit	slightly less weight loss	confirmed	did not cause weight loss or illness	binding of virus [8]: neither binding nor entry of virus was affected significantly; entry of virus (intracellular cores) [8]: neither binding nor entry of virus was affected significantly; titre of virus released into the culture medium [9]: no significant difference; titre of virus that remained cell-associated [9]: no significant difference; surface of virions associated with EEV membrane [10]: 46.4%; actin tails seen by EM [11]: actin tails were rarely seen; outer membrane of CEV bound to the cell surface [11]: disrupted the outer membrane of CEV; reduction of level of virus in lungs [12]: about 10 fold; reduction of levels of virus in the brain [12]: > 100 fold; virus titres, HP in absence of anti-VACV Ab [12]: titres were lower than in the absence of HP

— patent US20080299131A1, “Anti-Viral Compositions” (priority 2004, published 2008)
